Assay results as given in ChEMBL document CHEMBL3044920, “Progress in understanding molecular mechanisms and evolution of resistance to succinate dehydrogenase inhibiting (SDHI) fungicides in phytopathogenic fungi” (Crop Prot, 2010).

How the values were obtained:
Alternaria alternata [1] = test: Antifungal activity against wild type Alternaria alternata assessed as inhibition of mycelial growth at 10 ppm relative to untreated control; format: functional
Alternaria alternata [2] = test: Antifungal activity against boscalid-resistant Alternaria alternata expressing AaSDHD H133R mutant assessed as inhibition of mycelial growth at 10 ppm relative to untreated control; format: functional
Alternaria alternata [3] = test: Antifungal activity against boscalid-resistant Alternaria alternata expressing AaSDHC H134R mutant assessed as inhibition of mycelial growth at 10 ppm relative to untreated control; format: functional
Alternaria alternata [4] = test: Antifungal activity against boscalid-resistant Alternaria alternata expressing AaSDHB H277Y mutant assessed as inhibition of mycelial growth at 10 ppm relative to untreated control; format: functional
Alternaria alternata [5] = test: Antifungal activity against boscalid-resistant Alternaria alternata isolate Aa122 expressing AaSDHC H134R mutant; format: functional, organism-based
Alternaria alternata [6] = test: Antifungal activity against boscalid-resistant Alternaria alternata isolate Aa29 expressing AaSDHB H277Y mutant; format: functional, organism-based
Alternaria alternata [7] = test: Antifungal activity against wild type Alternaria alternata isolate Aa16; format: functional, organism-based
Alternaria alternata [8] = test: Antifungal activity against boscalid-resistant Alternaria alternata isolate Aa111 expressing AaSDHB H277Y mutant; format: functional, organism-based
Botrytis cinerea = test: Antifungal activity against resistant Botryotinia fuckeliana isolates obtained from excessive treatment with Signum; format: functional, organism-based

SMILES	inhibition at 10 ppm (Alternaria alternata [1]) [%]	inhibition at 10 ppm (Alternaria alternata [2]) [%]	inhibition at 10 ppm (Alternaria alternata [3]) [%]	inhibition at 10 ppm (Alternaria alternata [4]) [%]	EC50 (Alternaria alternata [5]) [ppm]	EC50 (Alternaria alternata [6]) [ppm]	EC50 (Alternaria alternata [7]) [ppm]	EC50 (Alternaria alternata [8]) [ppm]	EC50 (Botrytis cinerea) [ppm]
CC(C)CC(C)c1sccc1NC(=O)c1cn(C)nc1C(F)(F)F (racemic) [PENTHIOPYRAD]	89.7	88.7	85.1	90.5	–	–	–	–	–
O=C(Nc1ccccc1-c1ccc(Cl)cc1)c1cccnc1Cl [BOSCALID]	87.2	47.5	31.9	30.7	> 50	> 50	0.5	> 50	> 100
O=C(NCCc1ncc(C(F)(F)F)cc1Cl)c1ccccc1C(F)(F)F [FLUOPYRAM]	83	16.9	11.3	41.3	5	0.25	< 0.25	0.25	–
